Laboratory results published in article PMC3461104 (Journal of medicinal chemistry, 2012).

What was measured:
[1] = tested on: human PBMCs; assay: Immunoassays for cytokines in human PBMCs; format: cell-based; details: hPBMC stimulated 12 h with graded concentrations
[2] = molecular target: T1, human TLR8 (Homo sapiens, UniProt Q9NR97); assay: Human TLR8-specific HEK-Blue reporter gene assay; format: cell-based; details: human TLR8-transfected HEK293 cells, NF-κB reporter
T1 sequence (Q9NR97 27-1041): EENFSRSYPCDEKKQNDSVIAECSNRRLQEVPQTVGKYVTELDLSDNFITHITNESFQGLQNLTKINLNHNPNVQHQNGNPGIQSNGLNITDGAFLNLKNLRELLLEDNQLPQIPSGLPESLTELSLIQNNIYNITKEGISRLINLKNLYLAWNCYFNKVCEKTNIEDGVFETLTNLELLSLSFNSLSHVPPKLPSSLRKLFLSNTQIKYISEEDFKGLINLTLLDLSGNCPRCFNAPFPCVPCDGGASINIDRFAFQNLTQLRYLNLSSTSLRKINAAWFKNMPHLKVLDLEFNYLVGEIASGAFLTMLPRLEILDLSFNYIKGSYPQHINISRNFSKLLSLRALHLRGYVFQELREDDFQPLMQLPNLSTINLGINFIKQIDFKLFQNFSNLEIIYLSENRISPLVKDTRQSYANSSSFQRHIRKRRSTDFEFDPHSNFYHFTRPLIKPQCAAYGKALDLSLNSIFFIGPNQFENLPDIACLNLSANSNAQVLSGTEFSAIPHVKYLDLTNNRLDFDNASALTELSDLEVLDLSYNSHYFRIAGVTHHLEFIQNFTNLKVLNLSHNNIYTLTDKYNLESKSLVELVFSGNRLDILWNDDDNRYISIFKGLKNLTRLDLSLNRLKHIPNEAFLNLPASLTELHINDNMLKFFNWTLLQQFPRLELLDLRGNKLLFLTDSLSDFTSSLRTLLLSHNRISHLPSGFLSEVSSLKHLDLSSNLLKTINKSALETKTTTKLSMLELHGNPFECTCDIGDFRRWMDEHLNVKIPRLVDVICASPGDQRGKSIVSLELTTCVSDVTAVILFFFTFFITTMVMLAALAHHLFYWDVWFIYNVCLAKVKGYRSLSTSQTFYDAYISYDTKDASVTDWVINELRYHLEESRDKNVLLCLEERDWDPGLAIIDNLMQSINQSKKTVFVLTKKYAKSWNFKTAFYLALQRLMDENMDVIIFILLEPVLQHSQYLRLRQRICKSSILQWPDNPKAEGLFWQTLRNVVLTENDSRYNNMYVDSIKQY

[3] = tested on: human PBMCs; assay: Transcriptomal profiling in human PBMCs; format: cell-based; details: human PBMC, 10 μg/mL, two hours, fold change threshold 2.0
[4] = tested on: NF-κB; details: previously observed; cited from earlier work
[5] = previously observed; cited from earlier work
[6] = cited from earlier work

SMILES	proinflammatory cytokine induction [1]	dose-response profile (area-under the-curve) remark [2]	further results
Cc1ncc(CO)c2c(Nc3ccccn3)c(NCc3ccccc3)oc12 [Compound 28, (2-(benzylamino)-7-methyl-3-(pyridin-2-ylamino)furo[2,3-c]pyridin-4-yl)methanol]	none of the furo[2,3-c]pyridines showed any proinflammatory cytokine induction	–	–
Cc1ncc(CO)c2c(Nc3ccccc3)c(NCc3ccccc3)oc12 [Compound 36, (2-(benzylamino)-7-methyl-3-(phenylamino)furo[2,3-c]pyridin-4-yl)methanol]	–	Very low AUC	–
CCCCNc1oc2c(C)ncc(CO)c2c1Nc1ccccn1 [Compound 37a, (2-(butylamino)-7-methyl-3-(pyridin-2-ylamino)furo[2,3-c]pyridin-4-yl)methanol]	none of the furo[2,3-c]pyridines showed any proinflammatory cytokine induction	–	–
CCCCCNc1oc2c(C)ncc(CO)c2c1Nc1ccccn1 [Compound 37b, (7-methyl-2-(pentylamino)-3-(pyridin-2-ylamino)furo[2,3-c]pyridin-4-yl)methanol]	none of the furo[2,3-c]pyridines showed any proinflammatory cytokine induction	–	chemokine ligand gene expression [3]: upregulated several chemokine ligand (both CXCL and CCL) genes; transcriptional signatures of inflammation [3]: no transcriptional signatures of inflammation
CCCC(C)Nc1oc2c(C)ncc(CO)c2c1Nc1ccccn1 (stereo not drawn) [Compound 37d, (7-methyl-2-(pentan-2-ylamino)-3-(pyridin-2-ylamino)furo[2,3-c]pyridin-4-yl)methanol]	–	Low AUC	–
Cc1ncc(CO)c2c(Nc3ccccn3)c(NC[Si](C)(C)C)oc12 [Compound 37f, (7-methyl-3-(pyridin-2-ylamino)-2-(((trimethylsilyl)methyl)amino)furo[2,3-c]pyridin-4-yl)methanol]	none of the furo[2,3-c]pyridines showed any proinflammatory cytokine induction	–	chemokine ligand gene expression [3]: upregulated several chemokine ligand (both CXCL and CCL) genes; transcriptional signatures of inflammation [3]: no transcriptional signatures of inflammation
Cc1ncc(CO)c2c(Nc3ccccn3)c(NCCC(=O)OC(C)(C)C)oc12 [Compound 37i, tert-butyl 3-((4-(hydroxymethyl)-7-methyl-3-(pyridin-2-ylamino)furo[2,3-c]pyridin-2-yl)amino)propanoate]	–	Low AUC	–
Cc1ncc(CO)c2c(Nc3ccccn3)c(N[C@@H](C)c3ccccc3)oc12 [Compound 37m, (S)-(7-methyl-2-((1-phenylethyl)amino)-3-(pyridin-2-ylamino)furo[2,3-c]pyridin-4-yl)methanol]	–	Very low AUC	–
CCCCCNc1oc2c(C)ncc(CO)c2c1Nc1ccccc1 [Compound 38a, (7-methyl-2-(pentylamino)-3-(phenylamino)furo[2,3-c]pyridin-4-yl)methanol]	–	Low AUC	–
CCCCCNc1oc2c(C)ncc(CO)c2c1Nc1cccc(F)c1 [Compound 38b, (3-((3-fluorophenyl)amino)-7-methyl-2-(pentylamino)furo[2,3-c]pyridin-4-yl) methanol]	–	Low AUC	–
CCCCCNc1oc2c(C)ncc(CO)c2c1Nc1cccc([N+](=O)[O-])c1 [Compound 38c, (7-methyl-3-((3-nitrophenyl)amino)-2-(pentylamino)furo[2,3-c]pyridin-4-yl)methanol]	–	Low AUC	–
Clc1ccc2c(NCCCCNc3ccnc4cc(Cl)ccc34)ccnc2c1 [Compound 41, 7-chloro-N-(4-(7-chloroquinolin-4-ylamino)butyl) quinolin-4-amine]	–	–	NF-κB transactivation [4]: potent NF-κB transactivation; proinflammatory cytokine induction [5]: unaccompanied by any proinflammatory cytokine induction; adjuvantic activity [6]: potent adjuvant
